According to patent publication US5428048A, “Aryl-N-hydroxyureas as inhibitors of 5-lipoxygenase and anto-arteriosclerotic agents” (American Home Products Corporation, priority 1993, dated 1995):

Tests used:
LTB4 Synthesis = experiment: Reverse Passive Arthus Reaction (pleurisy, LTB4 in pleural exudate); format: in vivo, male Lewis rats
Procedure: 3. Reverse Passive Arthus Reaction
A reverse passive Arthus reaction is induced in the pleural cavity of male Lewis rats (150°-200 g; fasted overnight prior to use) by the intravenous administration of bovine serum albumin (BSA; 4 mg/0.2 ml) followed 30 minutes later by the injection of rabbit anti-BSA (1 mg/0.2 ml; lyophilized IgG fraction; Organon Teknika, West Chester, Pa.) into the right pleural space under halothane anesthesia. Drugs or vehicle (0.5% Tween-80) control are administered orally in a volume of 1 ml/100 g body weight at 1 hour prior to the anti-BSA. Animals are sacrificed at either the time of peak eicosanoid production (i.e. 5 minutes after anti-BSA for immunoreactive TxB2, 10 minutes for immunoreactive LTB4, 20 minutes for immunoreactive LTC4) or at the time of peak neutrophil infiltration (4 hours after anti-BSA) by CO2 inhalation. The pleural cavity is then exposed, the fluid exudate removed by gentle vacuum aspiration and the volume of exudate is recorded. For the determination of cellular infiltration, the pleural cavity is rinsed with 3 ml of 0.1% EDTA in sterile saline, and the recovered wash is pooled with the exudate. Cell number is determined on a model ZBI Coulter counter. For determination of eicosanoid production, undiluted pleural exudate is microfuged and the supernatant is extracted with ethanol (8-10 times volume). Extracts are either stored at -20° C., or are evaporated to dryness under a stream of N2 and reconstituted in radioimmunoassay (RIA) buffer.
Eicosanoids are quantitated by RIA according to the procedure specified by the RIA kit manufacturer (Advanced Magnetics, Cambridge, MA). Briefly, 100 μl of ^3 H-labeled eicosanoid and 100 μl of specific antibody ,are sequentially added to 100 μl of extracted pleural exudate in BGG-phosphate buffer which contains 0.01M phosphate, 0.1% bovine gamma globulin and 0.1% sodium azide at pH 7.0. Antibody-bound eicosanoid is separated from unbound eicosanoid by the addition of 750 μl of dextran (0.4%)-coated charcoal (Norit A) containing 0.1% sodium azide. The mixture is centrifuged at 2000 RPM at 5° C. for 15 minutes to pellet the charcoal and adsorbed unbound eicosanoid. Antibody-bound labeled eicosanoid is quantitated by counting in a liquid scintillation counter, and is correlated to concentration by a standard curve.

5-Lipoxygenase = target: T1, 5-Lipoxygenase (Homo sapiens, UniProt P09917); experiment: Inhibition of 5-Lipoxygenase in Human Whole Blood (ionophore A23187-stimulated LTB4); format: cell-based
T1 construct: endogenous in cells; host or cells: whole blood of male human donors (results per 10^6 neutrophils)
T1 sequence (P09917 1-674): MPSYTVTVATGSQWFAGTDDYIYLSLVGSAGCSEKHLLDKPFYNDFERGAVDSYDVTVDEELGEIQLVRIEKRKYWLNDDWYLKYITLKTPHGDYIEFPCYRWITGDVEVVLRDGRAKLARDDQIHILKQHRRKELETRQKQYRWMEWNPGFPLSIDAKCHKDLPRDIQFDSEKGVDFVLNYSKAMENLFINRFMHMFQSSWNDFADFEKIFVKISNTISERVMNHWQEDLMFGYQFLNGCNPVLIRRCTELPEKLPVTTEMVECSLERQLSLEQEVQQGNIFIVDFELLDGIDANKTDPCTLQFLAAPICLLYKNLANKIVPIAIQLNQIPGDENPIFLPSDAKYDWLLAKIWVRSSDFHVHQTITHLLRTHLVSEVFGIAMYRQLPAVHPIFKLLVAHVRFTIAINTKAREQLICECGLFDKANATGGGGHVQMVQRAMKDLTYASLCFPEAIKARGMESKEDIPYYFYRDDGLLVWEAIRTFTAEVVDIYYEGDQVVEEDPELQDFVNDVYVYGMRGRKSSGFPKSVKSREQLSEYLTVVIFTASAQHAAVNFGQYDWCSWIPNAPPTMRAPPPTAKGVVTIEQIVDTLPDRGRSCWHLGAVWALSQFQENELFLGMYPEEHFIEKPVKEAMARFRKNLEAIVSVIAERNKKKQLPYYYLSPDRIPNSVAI
Procedure: 1. Inhibition of 5-Lipoxygenase in Human Whole Blood
Blood is obtained in 50-100 ml quantities from male donors. White blood cell counts and differentials are made. Two ml of blood are placed in a 15 ml polypropylene test tube. Test compounds are solubilized in dimethylsulfoxide and diluted in 1:10 in 10% bovine serum albumin in phosphate buffered saline, pH 7.4 resulting in a final dimethylsulfoxide concentration of 0.1% in the blood. Then, solutions of test compounds are added to the blood in a shaking water bath at 37° C. for 10 minutes prior to the addition of 30 μM calcium ionophore (A23187, Sigma). After ionophore administration, whole blood samples are mixed and incubated for 20 minutes at 37° C. in a shaking water bath. Incubation is terminated by placing samples in an ice bath and immediately adding ethylene glycol-bis-(β-aminoethyl ether)-N, N,N',N'-tetraacetic acid (10 mM). Samples are mixed and centrifuged at 1200×g for 15 minutes at […]. Preparation of samples for evaluation by RIA or ELISA is carded out by the following protocol. Plasma is removed from sample tubes, placed in 15 ml polypropylene test tubes containing 8 ml methanol, and then vortexed to precipitate protein. Samples are stored at -70° C. overnight. The next day, samples are centrifuged at 200×g for 15 minutes at 4° C. to pellet the precipitate. Samples are dried in a Savant SpeedVac Concentrator, Model SVC 200H, reconstituted to original volume with ice cold RIA or ELISA buffer, and stored at -70° C. until assayed. The assay for eicosanoids (LTB4, TxB2, and PGE2) is performed as described by the manufacturer of the [^3 H]-RIA kit or ELISA kit (LTB4 -Amersham, TxB2 and PGE2 - Caymen Chemical).
The total eicosanoid level in 2 ml of blood is calculated and reported as ng/10^6 neutrophils. Significance is determined by a one-way analysis of variance with least significant difference (LSD) comparisons to control (p≤0.05) and IC50 's (μM) are determined by regression analysis (Finney, 1978). Drug effects are expressed as percent change from control values.

Row | inhibition at 1 µM (5-Lipoxygenase) | inhibition at 10 µM (5-Lipoxygenase; 10 μM) | SMILES | % Inhibition LTB4 Synthesis (LTB4 Synthesis; 25 mg/kg p.o.) | % Inhibition LTB4 Synthesis (LTB4 Synthesis; 10 mg/kg p.o.)
1 | 55% |  | Cc1oc(-c2ccccc2)nc1CCOc1ccc(CN(O)C(N)=O)cc1 [Example 1] | 35% | 
2 | 47% |  | Cc1oc(-c2ccc(C(F)(F)F)cc2)nc1CCOc1ccc(CN(O)C(N)=O)cc1 [Example 13, 1-Hydroxy-1-[4-[2-[5-methyl-2(4-trifluoromethyl-phenyl)-oxazol-4-yl]-ethoxy]benzyl]-urea] |  | 91%
3 |  | 60% | Cc1oc(-c2ccccc2)nc1CCOc1ccc(C(C)N(O)C(N)=O)cc1 (stereo not shown) [Example 4] |  | 
4 | 70% |  | NC(=O)N(O)Cc1ccc(OCCc2noc(-c3ccccc3)n2)cc1 [Example 21, 1-hydroxy-1-[4-[2-(5-phenyl-[1,2,4]-oxadiazol-3-yl)-ethoxy]-benzyl]-urea] | 19% | 
